Where two headings read alike, the source gives them in different places.
How the values were obtained:
MAPKAPK2 (MK-2) = MAPKAPK2 (MK-2) (Homo sapiens, UniProt P49137); experiment: Determination of MK-2 IC50 (HSP-peptide phosphorylation, anion exchange resin capture assay); assay type: biochemical
Summary of the method: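 MAPKAPK2, preactivated by p38α with 0.25 mM ATP for 1 h at 30° C, used at 15 nM to phosphorylate HSP-peptide with 0.03 mM ATP plus [γ33P]ATP, pH 7.5, 2% DMSO, 30 min at 30° C. Labelled peptide counted after anion-exchange resin capture; IC50 from six ten-fold dilutions, triplicate.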

MK-3 = MK-3 (Homo sapiens, UniProt Q16644); experiment: MK-3 inhibition IC50 (similar method to MK-2, with appropriate modifications); assay type: biochemical; conditions: read-out: MK-3 Avg. IC50
Chain of MK-3 (Q16644 whole entry, species assumed): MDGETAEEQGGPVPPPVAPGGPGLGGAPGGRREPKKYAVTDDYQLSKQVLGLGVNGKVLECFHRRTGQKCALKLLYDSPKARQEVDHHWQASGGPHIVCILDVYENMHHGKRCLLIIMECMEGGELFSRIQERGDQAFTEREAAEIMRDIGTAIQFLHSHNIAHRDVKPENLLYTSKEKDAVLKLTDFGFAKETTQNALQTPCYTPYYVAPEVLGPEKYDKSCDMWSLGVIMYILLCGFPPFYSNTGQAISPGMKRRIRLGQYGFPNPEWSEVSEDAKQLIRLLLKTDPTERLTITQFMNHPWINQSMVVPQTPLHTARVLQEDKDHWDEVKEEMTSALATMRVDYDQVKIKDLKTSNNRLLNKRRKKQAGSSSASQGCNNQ
Protocol: In practice, the selectivity of a cyclic pyrazole MK-2 inhibitor varies depending upon the condition under which the test is performed and on the inhibitors being tested. However, for the purposes of this specification, the selectivity of a cyclic pyrazole MK-2 inhibitor inhibitor can be measured as a ratio of the in vitro or in vivo IC50 value for inhibition of MK-3, divided by the IC50 value for inhibition of MK-2 (IC50 MK-3/IC50 MK-2). […] The MK-2 or MK-3 inhibiting activity of any of the compounds described herein can be determined by any one of several methods that are well known to those having skill in the art of enzyme activity testing. […] A similar method, with appropriate modifications, Can be used to measure MK-3 inhibitory activity. In addition, the efficacy of one of the present MK-2 inhibiting compounds in therapeutic applications can be determined by testing for inhibition of TNFα production in cell culture and in animal model assays.

[1] = Table 1, phenoxypyrazole MK-2 inhibitors, read-out: MK-2 Avg, IC50
[2] = Table 1, phenoxypyrazole MK-2 inhibitors
[3] = Table 2, pyrazolylpyrazole MK-2 inhibitors, read-out: MK-2 Avg. IC50
[4] = Table 2, pyrazolylpyrazole MK-2 inhibitors
[5] = Table 5, other cyclic pyrazole MK-2 inhibiting compounds, read-out: MK-2 Avg. IC50
[6] = Table 5, other cyclic pyrazole MK-2 inhibiting compounds

Chain of MAPKAPK2 (MK-2) (P49137 whole entry, species assumed): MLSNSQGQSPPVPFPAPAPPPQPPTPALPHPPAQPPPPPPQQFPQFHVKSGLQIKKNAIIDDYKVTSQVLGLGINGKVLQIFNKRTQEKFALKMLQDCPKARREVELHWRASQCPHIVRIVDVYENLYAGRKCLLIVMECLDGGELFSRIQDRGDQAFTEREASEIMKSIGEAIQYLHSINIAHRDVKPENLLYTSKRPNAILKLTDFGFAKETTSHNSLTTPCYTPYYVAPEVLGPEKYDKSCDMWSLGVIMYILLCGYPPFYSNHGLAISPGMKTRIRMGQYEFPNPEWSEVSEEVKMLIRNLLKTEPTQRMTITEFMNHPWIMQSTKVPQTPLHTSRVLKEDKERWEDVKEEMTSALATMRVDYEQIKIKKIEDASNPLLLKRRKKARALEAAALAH

With CC(C)(CCc1cc2c(cc1O)CCc1c-2nn(CCCN)c1C(=O)O)CC(=O)O [Example 26] the IC50 (MAPKAPK2 (MK-2); [1]) was 22.2 µM and the IC50 (MK-3; [2]) was 135 µM.
Work on O=C(O)c1c2c(nn1CCCNCCc1ccc(-c3ccc(C(F)(F)F)cc3)cc1)-c1ccncc1CC2 [Example 26] yielded an IC50 (MAPKAPK2 (MK-2); read-out: MK-2 Avg. IC50) of 0.147 µM and an IC50 (MK-3) of 9.04 µM.
For NCCCn1nc2c(c1C(=O)O)CCc1cc(O)c(N)cc1-2 [Example 27], the IC50 (MAPKAPK2 (MK-2); [1]) was 26.8 µM and the IC50 (MK-3; [2]) was over 200 µM.
With O=C(O)c1c2c(nn1CCCO)-c1cn[nH]c1CC2 [Example 27] the IC50 (MAPKAPK2 (MK-2); [3]) was 103 µM and the IC50 (MK-3; [4]) was at least 200 µM.
For O=C1NCCn2nc3c(c21)CCc1cnc(-c2cccc(O)c2)cc1-3 [Example 27], the IC50 (MAPKAPK2 (MK-2); read-out: MK-2 Avg. IC50) was 0.148 µM and the IC50 (MK-3) was 2.51 µM.
NCCCn1nc2c(c1C(=O)NO)CCc1cnc(-c3cnc4ccccc4c3)cc1-2 [Example 28] was tested, and the IC50 (MAPKAPK2 (MK-2); read-out: MK-2 Avg. IC50) was 0.162 µM and the IC50 (MK-3) was 4.67 µM.
Compound O=C(O)c1[nH]nc2c1CCc1cc(O)c(O)cc1-2 [Example 28] has an IC50 (MAPKAPK2 (MK-2); [1]) of 28.3 µM and an IC50 (MK-3; [2]) of over 200 µM.
NC(=O)c1nn(-c2ccccc2)c2c1CCc1[nH]ncc1-2 [Example 29] was tested, and the IC50 (MAPKAPK2 (MK-2); [3]) was 112 µM and the IC50 (MK-3; [4]) was at least 200 µM.
O=C1NCCn2nc3c(c21)CCc1cnc(/C=C/c2ccc(O)cc2)cc1-3 [Example 29] showed an IC50 (MAPKAPK2 (MK-2); read-out: MK-2 Avg. IC50) of 0.164 µM and an IC50 (MK-3) of 27.5 µM.
With NCCCn1nc2c(c1C(=O)O)CCc1cc(O)c(-c3ccccc3Cl)cc1-2 [Example 30] the IC50 (MAPKAPK2 (MK-2); [1]) was 29.8 µM and the IC50 (MK-3; [2]) was 60.7 µM.
In the case of O=C(O)c1[nH]nc2c1CCc1c-2cnn1CCO [Example 30], the IC50 (MAPKAPK2 (MK-2); [3]) is reported as 114 µM and the IC50 (MK-3; [4]) is reported as at least 200 µM.
For O=C1NCCCn2nc3c(c21)CCc1cnc(-c2cnc4ccccc4c2)cc1-3 [Example 30], the IC50 (MAPKAPK2 (MK-2); read-out: MK-2 Avg. IC50) was 0.171 µM and the IC50 (MK-3) was 11.9 µM.
C=CCSc1n[nH]c2c1-c1nn(CCCN)c(C(=O)OCC)c1CC2 [Example 31] showed an IC50 (MAPKAPK2 (MK-2); [3]) of 114 µM and an IC50 (MK-3; [4]) of at least 200 µM.
Compound C=CCn1nc2c(c1C(=O)O)CCc1cc(O)ccc1-2 [Example 31] has an IC50 (MAPKAPK2 (MK-2); [1]) of 35.6 µM and an IC50 (MK-3; [2]) of over 200 µM.
Work on O=C1NCCCn2nc3c(c21)CCc1cnc(-c2ccc(O)cc2)cc1-3 [Example 31] yielded an IC50 (MAPKAPK2 (MK-2); read-out: MK-2 Avg. IC50) of 0.183 µM and an IC50 (MK-3) of 2.56 µM.
With COc1cc2c(cc1-c1ccc([N+](=O)[O-])cc1)-c1nn(CCCNC(=O)OC(C)(C)C)c(C(=O)O)c1CC2 [Example 32] the IC50 (MAPKAPK2 (MK-2); [1]) was 37.4 µM and the IC50 (MK-3; [2]) was 115 µM.
For N#CCCCn1nc2c(c1C(=O)O)CCc1[nH]ncc1-2 [Example 32], the IC50 (MAPKAPK2 (MK-2); [3]) was 116 µM and the IC50 (MK-3; [4]) was at least 200 µM.
Work on O=C(O)c1c2c(nn1CCCNCCc1ccc(-c3ccccc3Cl)cc1)-c1ccncc1CC2 [Example 32] yielded an IC50 (MAPKAPK2 (MK-2); read-out: MK-2 Avg. IC50) of 0.185 µM and an IC50 (MK-3) of 9.61 µM.
Work on CC(C)(C)c1ccc(-c2ccc(CCNCCCn3nc4c(c3C(=O)O)CCc3cnccc3-4)cc2)cc1 [Example 33] yielded an IC50 (MAPKAPK2 (MK-2); read-out: MK-2 Avg. IC50) of 0.201 µM and an IC50 (MK-3) of 7.22 µM.
For CCOC(=O)c1c2c(nn1CCCN)-c1cn[nH]c1CC2 [Example 33], the IC50 (MAPKAPK2 (MK-2); [3]) was 116 µM and the IC50 (MK-3; [4]) was 186 µM.
Compound NC(=O)c1[nH]nc2c1CCc1cc(O)ccc1-2 [Example 33] has an IC50 (MAPKAPK2 (MK-2); [1]) of 39.2 µM and an IC50 (MK-3; [2]) of 107 µM.
NCCCn1nc2c(c1C(=O)O)CCc1cnc(/C=C/c3ccccc3)cc1-2 [Example 33] showed an IC50 (MAPKAPK2 (MK-2); [5]) of 0.0329 µM and an IC50 (MK-3; [6]) of 0.528 µM.
Cn1nc2c(c1C(=O)O)CCc1cc(O)ccc1-2 [Example 34] gave an IC50 (MAPKAPK2 (MK-2); [1]) of 44.4 µM and an IC50 (MK-3; [2]) of over 200 µM.
In the case of NC(=O)c1nn(Cc2ccccc2)c2c1CCc1[nH]ncc1-2 [Example 34], the IC50 (MAPKAPK2 (MK-2); [3]) is reported as 120 µM and the IC50 (MK-3; [4]) is reported as at least 200 µM.
With O=C(O)c1c2c(nn1CCCNCCc1ccc(Br)cc1)-c1cc(/C=C/c3ccccc3)ncc1CC2 [Example 34] the IC50 (MAPKAPK2 (MK-2); [5]) was 0.28 µM and the IC50 (MK-3; [6]) was 2.02 µM.
For O=C(O)c1c2c(nn1CCCNCCc1ccc(Cl)c(Cl)c1)-c1ccncc1CC2 [Example 34], the IC50 (MAPKAPK2 (MK-2); read-out: MK-2 Avg. IC50) was 0.201 µM and the IC50 (MK-3) was 10.3 µM.
Work on CS(=O)(=O)c1ccc(-n2nc(C(N)=O)c3c2-c2cn[nH]c2CC3)cc1 [Example 35] yielded an IC50 (MAPKAPK2 (MK-2); [3]) of 124 µM and an IC50 (MK-3; [4]) of at least 200 µM.
For O=C(O)c1c2c(nn1CCCNCCCc1cccc(Cl)c1)-c1ccncc1CC2 [Example 35], the IC50 (MAPKAPK2 (MK-2); read-out: MK-2 Avg. IC50) was 0.207 µM and the IC50 (MK-3) was 8.57 µM.
Compound O=C(O)c1c2c(nn1CCCNCCc1ccc(/C=C/c3ccccc3)cc1)-c1cc(/C=C/c3ccccc3)ncc1CC2 [Example 35] has an IC50 (MAPKAPK2 (MK-2); [5]) of 0.528 µM and an IC50 (MK-3; [6]) of over 20 µM.
Work on CCOC(=O)c1c2c(nn1CCCNCCc1ccsc1)-c1cn[nH]c1CC2 [Example 36] yielded an IC50 (MAPKAPK2 (MK-2); [3]) of 133 µM and an IC50 (MK-3; [4]) of at least 200 µM.
NCCCn1nc2c(c1C(=O)O)CCc1cc(O)c(-c3cccc(C(=O)O)c3)cc1-2 [Example 36] showed an IC50 (MAPKAPK2 (MK-2); [1]) of 47.3 µM and an IC50 (MK-3; [2]) of over 200 µM.
For O=C1NCCn2nc3c(c21)CCc1cnc(/C=C/c2ccccc2)cc1-3 [Example 36], the IC50 (MAPKAPK2 (MK-2); read-out: MK-2 Avg. IC50) was 0.21 µM and the IC50 (MK-3) was 11.5 µM.
